# Experimental data reported in US20230151049A1, “Compounds Useful in HIV Therapy” (priority 2020, published 2023).
# Several values for one entry are separate records, joined by “and”; a condition that tells them apart may be missing. Equal entries are not always repeated. Where two headings read alike, the source gives them in different places.
# Assay: EFdA Rat PK Studies (subcutaneous and intramuscular groups), plasma concentration by LC-MS/MS
# Assay type: in vivo, Wistar Han rats
# Details: for Assayed Concentrations of EFdA, individual rats / Assayed Concentrations of EFdA, Mean / concentration at 0.5 h / concentration at 1 h / concentration at 4 h / concentration at 7 h / concentration at 24 h / concentration at 48 h / concentration at 72 h / concentration at 6 day / concentration at 25 day: plasma; for concentration at 0.5 h / concentration at 1 h / concentration at 4 h / concentration at 7 h / concentration at 24 h / concentration at 48 h / concentration at 72 h / concentration at 6 day / concentration at 25 day: male, Wistar Han, rat
# Description: Protocol for EFdA Rat PK Studies Conducted at Charles River Laboratories, NY.
# A total of seven naïve male Wistar Han rats, 200-250 g, were received from Charles River Laboratories, Kingston, N.Y. All animals were received from the supplier equipped with a surgically-implanted jugular vein catheter (JVC) for blood sample collection. Following an acclimation period, the animals were assigned to the study based on acceptable health as determined by a staff veterinarian and catheter patency. Animals were placed into two groups of 3 rats per group. Fasting of the animals before or after dosing was not required.
# On Day 1 each animal in Group 1 received a single subcutaneous injection of prepared test article at a target dose level of 20 mg/kg and at a dose volume of 0.33 mL/kg. Each animal in Group 2 received a single intramuscular injection of prepared test article into a thigh muscle at a target dose level of 20 mg/kg and at a dose volume of 0.33 mL/kg. The injection sites were shaved prior to dosing and identified with an indelible marker for daily monitoring during the study. The animals were manually restrained for dosing and were not sedated. The dose suspension was mixed well by inversion before each dose to ensure homogeneity. All dosing was performed as detailed in the study protocol and was completed without incident. […] In addition, all animals are monitored twice daily by the veterinary staff for clinical abnormalities.
# Blood samples were collected from the study animals as detailed in the sample collection Table 2 below.
# Each blood sample for PK (250 μL) was collected from the jugular vein catheter or by venipuncture of a jugular vein. The blood was transferred to a tube containing NaF/Na2EDTA anticoagulant and inverted several times to mix. The blood samples were maintained on crushed ice before centrifugation at 2200×g for 10 minutes at 5° C. to isolate plasma. The resulting plasma samples were transferred to individual polypropylene tubes in a 96-well plate format and immediately placed on dry ice until storage at nominally −80° C. prior to analysis.
# The PK plasma samples were analyzed by the Testing Facility to determine the concentration of EFdA using an LC-MS/MS Research Grade Assay (RGA-1) with sensitivity to 0.1 ng/mL. Following review of sample analysis data through Day 29, further sample analysis was discontinued and the study was terminated. The individual and mean plasma concentration-time data are presented in Tables 3 and 4 and mean concentration-time profiles are shown in FIGS. 1 and 2.
smiles,measurement,setting,value
"C#C[C@]1(CO)O[C@@H](n2cnc3c(N)nc(F)nc32)C[C@@H]1O [EFdA, (2R,3S,5R)-5-(6-amino-2-fluoro-9H-purin-9-yl)-2-ethynyl-2-(hydroxymethyl)tetrahydrofuran-3-ol]","Assayed Concentrations of EFdA, individual rats","0.5 hr, IM 20 mg/kg",1150 ng/mL and 684 ng/mL
same,"Assayed Concentrations of EFdA, individual rats","0.5 hr, SC 20 mg/kg, 20 mg/kg",1000 ng/mL and 640 ng/mL and 2210 ng/mL
same,"Assayed Concentrations of EFdA, individual rats","1 hr, IM 20 mg/kg",1640 ng/mL and 1400 ng/mL
same,"Assayed Concentrations of EFdA, individual rats","1 hr, SC 20 mg/kg, 20 mg/kg",1160 ng/mL and 1040 ng/mL and 3030 ng/mL
same,"Assayed Concentrations of EFdA, individual rats","4 hr, IM 20 mg/kg",436 ng/mL and 733 ng/mL
same,"Assayed Concentrations of EFdA, individual rats","4 hr, SC 20 mg/kg, 20 mg/kg",676 ng/mL and 708 ng/mL
same,"Assayed Concentrations of EFdA, individual rats","7 hr, IM 20 mg/kg",241 ng/mL and 191 ng/mL and 426 ng/mL
same,"Assayed Concentrations of EFdA, individual rats","7 hr, SC 20 mg/kg, 20 mg/kg",372 ng/mL and 216 ng/mL
same,"Assayed Concentrations of EFdA, individual rats","24 hr, IM 20 mg/kg",24.7 ng/mL and 1.96 ng/mL and 32.6 ng/mL
same,"Assayed Concentrations of EFdA, individual rats","24 hr, SC 20 mg/kg, 20 mg/kg",6.70 ng/mL and 14.7 ng/mL and 2.53 ng/mL
same,"Assayed Concentrations of EFdA, individual rats","48 hr, IM 20 mg/kg",5.25 ng/mL and 0.369 ng/mL and 0.915 ng/mL
same,"Assayed Concentrations of EFdA, individual rats","48 hr, SC 20 mg/kg, 20 mg/kg",0.713 ng/mL and 0.543 ng/mL
same,"Assayed Concentrations of EFdA, individual rats","72 hr, IM 20 mg/kg",0.316 ng/mL and 0.241 ng/mL
same,"Assayed Concentrations of EFdA, individual rats","72 hr, SC 20 mg/kg, 20 mg/kg",0.270 ng/mL and 0.201 ng/mL
same,"Assayed Concentrations of EFdA, individual rats","Day 6, IM 20 mg/kg","BQL (BQL—Below Quantitation Limit, <0.100 ng/mL) and 0.103 ng/mL"
same,"Assayed Concentrations of EFdA, individual rats","Day 6, SC 20 mg/kg, 20 mg/kg","BQL (BQL—Below Quantitation Limit, <0.100 ng/mL)"
same,"Assayed Concentrations of EFdA, Mean","Day 8, IM 20 mg/kg","BQL (BQL—Below Quantitation Limit, <0.100 ng/mL)"
same,"Assayed Concentrations of EFdA, individual rats","Day 8, IM 20 mg/kg","BQL (BQL—Below Quantitation Limit, <0.100 ng/mL)"
same,"Assayed Concentrations of EFdA, Mean","Day 8, SC 20 mg/kg","BQL (BQL—Below Quantitation Limit, <0.100 ng/mL)"
same,"Assayed Concentrations of EFdA, individual rats","Day 8, SC 20 mg/kg","BQL (BQL—Below Quantitation Limit, <0.100 ng/mL)"
same,"Assayed Concentrations of EFdA, Mean","Day 11, IM 20 mg/kg","BQL (BQL—Below Quantitation Limit, <0.100 ng/mL)"
same,"Assayed Concentrations of EFdA, individual rats","Day 11, IM 20 mg/kg","BQL (BQL—Below Quantitation Limit, <0.100 ng/mL)"
same,"Assayed Concentrations of EFdA, Mean","Day 11, SC 20 mg/kg","BQL (BQL—Below Quantitation Limit, <0.100 ng/mL)"
same,"Assayed Concentrations of EFdA, individual rats","Day 11, SC 20 mg/kg","BQL (BQL—Below Quantitation Limit, <0.100 ng/mL)"
same,"Assayed Concentrations of EFdA, Mean","Day 15, IM 20 mg/kg","BQL (BQL—Below Quantitation Limit, <0.100 ng/mL)"
same,"Assayed Concentrations of EFdA, individual rats","Day 15, IM 20 mg/kg","BQL (BQL—Below Quantitation Limit, <0.100 ng/mL)"
same,"Assayed Concentrations of EFdA, Mean","Day 15, SC 20 mg/kg","BQL (BQL—Below Quantitation Limit, <0.100 ng/mL)"
same,"Assayed Concentrations of EFdA, individual rats","Day 15, SC 20 mg/kg","BQL (BQL—Below Quantitation Limit, <0.100 ng/mL)"
same,"Assayed Concentrations of EFdA, Mean","Day 22, IM 20 mg/kg","BQL (BQL—Below Quantitation Limit, <0.100 ng/mL)"
same,"Assayed Concentrations of EFdA, individual rats","Day 22, IM 20 mg/kg","BQL (BQL—Below Quantitation Limit, <0.100 ng/mL)"
same,"Assayed Concentrations of EFdA, Mean","Day 22, SC 20 mg/kg","BQL (BQL—Below Quantitation Limit, <0.100 ng/mL)"
same,"Assayed Concentrations of EFdA, individual rats","Day 22, SC 20 mg/kg","BQL (BQL—Below Quantitation Limit, <0.100 ng/mL)"
same,"Assayed Concentrations of EFdA, Mean","Day 25, IM 20 mg/kg","BQL (BQL—Below Quantitation Limit, <0.100 ng/mL)"
same,"Assayed Concentrations of EFdA, individual rats","Day 25, IM 20 mg/kg","BQL (BQL—Below Quantitation Limit, <0.100 ng/mL)"
same,"Assayed Concentrations of EFdA, individual rats","Day 25, SC 20 mg/kg, 20 mg/kg","BQL (BQL—Below Quantitation Limit, <0.100 ng/mL)"
same,"Assayed Concentrations of EFdA, Mean","Day 29, IM 20 mg/kg","BQL (BQL—Below Quantitation Limit, <0.100 ng/mL)"
same,"Assayed Concentrations of EFdA, individual rats","Day 29, IM 20 mg/kg","BQL (BQL—Below Quantitation Limit, <0.100 ng/mL)"
same,"Assayed Concentrations of EFdA, Mean","Day 29, SC 20 mg/kg","BQL (BQL—Below Quantitation Limit, <0.100 ng/mL)"
same,"Assayed Concentrations of EFdA, individual rats","Day 29, SC 20 mg/kg","BQL (BQL—Below Quantitation Limit, <0.100 ng/mL)"
same,concentration at 0.5 h,"intramuscular, 20 mg/kg, 0.5 hr, IM 20 mg/kg, read-out: Assayed Concentrations of EFdA, Mean",921 ng/mL
same,concentration at 0.5 h,"intramuscular, 20 mg/kg, 0.5 hr, IM 20 mg/kg, read-out: Assayed Concentrations of EFdA, individual rats",929 ng/mL
same,concentration at 1 h,"intramuscular, 20 mg/kg, 1 hr, IM 20 mg/kg, read-out: Assayed Concentrations of EFdA, Mean",1330 ng/mL
same,concentration at 1 h,"intramuscular, 20 mg/kg, 1 hr, IM 20 mg/kg, read-out: Assayed Concentrations of EFdA, individual rats",957 ng/mL
same,concentration at 4 h,"intramuscular, 20 mg/kg, 4 hr, IM 20 mg/kg, read-out: Assayed Concentrations of EFdA, Mean",610 ng/mL
same,concentration at 4 h,"intramuscular, 20 mg/kg, 4 hr, IM 20 mg/kg, read-out: Assayed Concentrations of EFdA, individual rats",662 ng/mL
same,concentration at 7 h,"intramuscular, 20 mg/kg, 7 hr, IM 20 mg/kg, read-out: Assayed Concentrations of EFdA, Mean",286 ng/mL
same,concentration at 24 h,"intramuscular, 20 mg/kg, 24 hr, IM 20 mg/kg, read-out: Assayed Concentrations of EFdA, Mean",19.8 ng/mL
same,concentration at 48 h,"intramuscular, 20 mg/kg, 48 hr, IM 20 mg/kg, read-out: Assayed Concentrations of EFdA, Mean",2.18 ng/mL
same,concentration at 72 h,"intramuscular, 20 mg/kg, 72 hr, IM 20 mg/kg, read-out: Assayed Concentrations of EFdA, Mean",0.29 ng/mL
same,concentration at 72 h,"intramuscular, 20 mg/kg, 72 hr, IM 20 mg/kg, read-out: Assayed Concentrations of EFdA, individual rats",0.301 ng/mL
same,concentration at 6 day,"intramuscular, 20 mg/kg, Day 6, IM 20 mg/kg, read-out: Assayed Concentrations of EFdA, Mean",0.1 ng/mL
same,concentration at 6 day,"intramuscular, 20 mg/kg, Day 6, IM 20 mg/kg, read-out: Assayed Concentrations of EFdA, individual rats",0.102 ng/mL
same,concentration at 0.5 h,"sc, 20 mg/kg, 0.5 hr, SC 20 mg/kg, read-out: Assayed Concentrations of EFdA, Mean",1280 ng/mL
same,concentration at 1 h,"sc, 20 mg/kg, 1 hr, SC 20 mg/kg, read-out: Assayed Concentrations of EFdA, Mean",1430 ng/mL
same,concentration at 4 h,"sc, 20 mg/kg, 4 hr, SC 20 mg/kg, read-out: Assayed Concentrations of EFdA, Mean",639 ng/mL
same,concentration at 4 h,"sc, 20 mg/kg, 4 hr, SC 20 mg/kg, read-out: Assayed Concentrations of EFdA, individual rats",534 ng/mL
same,concentration at 7 h,"sc, 20 mg/kg, 7 hr, SC 20 mg/kg, read-out: Assayed Concentrations of EFdA, Mean",303 ng/mL
same,concentration at 7 h,"sc, 20 mg/kg, 7 hr, SC 20 mg/kg, read-out: Assayed Concentrations of EFdA, individual rats",320 ng/mL
same,concentration at 24 h,"sc, 20 mg/kg, 24 hr, SC 20 mg/kg, read-out: Assayed Concentrations of EFdA, Mean",7.98 ng/mL
same,concentration at 48 h,"sc, 20 mg/kg, 48 hr, SC 20 mg/kg, read-out: Assayed Concentrations of EFdA, Mean",0.68 ng/mL
same,concentration at 48 h,"sc, 20 mg/kg, 48 hr, SC 20 mg/kg, read-out: Assayed Concentrations of EFdA, individual rats",0.771 ng/mL
same,concentration at 72 h,"sc, 20 mg/kg, 72 hr, SC 20 mg/kg, read-out: Assayed Concentrations of EFdA, Mean",0.241 ng/mL
same,concentration at 72 h,"sc, 20 mg/kg, 72 hr, SC 20 mg/kg, read-out: Assayed Concentrations of EFdA, individual rats",0.251 ng/mL
same,concentration at 6 day,"sc, 20 mg/kg, Day 6, SC 20 mg/kg, read-out: Assayed Concentrations of EFdA, Mean",0.04 ng/mL
same,concentration at 6 day,"sc, 20 mg/kg, Day 6, SC 20 mg/kg, read-out: Assayed Concentrations of EFdA, individual rats",0.117 ng/mL
same,concentration at 25 day,"sc, 20 mg/kg, Day 25, SC 20 mg/kg, read-out: Assayed Concentrations of EFdA, Mean",0.221 ng/mL
same,concentration at 25 day,"sc, 20 mg/kg, Day 25, SC 20 mg/kg, read-out: Assayed Concentrations of EFdA, individual rats",0.221 ng/mL
same,detectable duration of exposure of EFdA,rat IM and SC administration of 20 mg/kg,less than 8 days
